Test results reported in ChEMBL document CHEMBL5518218, “Discovery of Novel PD-L1 Small-Molecular Inhibitors with Potent In Vivo Anti-tumor Immune Activity” (J Med Chem, 2024).
Active and inactive are the calls of the source. The rule behind the calls is not given here.

Assays:
[1] = Prodrug conversion in Sprague-Dawley rat assessed as clearance of (2-(benzo[c][1,2,5]oxadiazol-5-ylmethoxy)-5-chloro-4-((2-fluoro-3'-(3-(4-hydroxypiperidin-1-yl)propoxy)-[1,1'-biphenyl]-3-yl)methoxy)benzyl)-D-serine at 9 mg/kg, iv measured upto 24 hrs by LC-MS/MS analysis; type: ADME, organism-based; conditions: in vivo
[2] = Prodrug conversion in Sprague-Dawley rat assessed as oral bioavailability of (2-(benzo[c][1,2,5]oxadiazol-5-ylmethoxy)-5-chloro-4-((2-fluoro-3'-(3-(4-hydroxypiperidin-1-yl)propoxy)-[1,1'-biphenyl]-3-yl)methoxy)benzyl)-D-serine at 45 mg/kg measured upto 24 hrs by LC-MS/MS analysis; type: ADME, organism-based; conditions: in vivo
[3] = Prodrug conversion in C57BL/6 mouse assessed as AUC (0 to t) of (2-(benzo[c][1,2,5]oxadiazol-5-ylmethoxy)-5-chloro-4-((2-fluoro-3'-(3-(4-hydroxypiperidin-1-yl)propoxy)-[1,1'-biphenyl]-3-yl)methoxy)benzyl)-D-serine at 2 mg/kg, iv measured upto 24 hrs by LC-MS/MS analysis; type: ADME, organism-based; conditions: in vivo
[4] = Prodrug conversion in C57BL/6 mouse assessed as AUC (0 to t) of (2-(benzo[c][1,2,5]oxadiazol-5-ylmethoxy)-5-chloro-4-((2-fluoro-3'-(3-(4-hydroxypiperidin-1-yl)propoxy)-[1,1'-biphenyl]-3-yl)methoxy)benzyl)-D-serine at 10 mg/kg, po measured upto 24 hrs by LC-MS/MS analysis; type: ADME, organism-based; conditions: in vivo
[5] = Acute toxicity in mouse assessed as signs of distress at 1000 mg/kg, po administered as single dose for 14 days; type: organism-based; conditions: in vivo, 336 h, time 14 day
[6] = Acute toxicity in mouse assessed as mortality at 1000 mg/kg, po administered as single dose for 14 days; type: organism-based; conditions: in vivo, 336 h, time 14 day
MC-38 [7] = assay: Antitumor activity against mouse MC38 cells implanted in po dosed C57BL/6J mouse assessed as reduction in tumor growth; type: functional, organism-based; conditions: dose 5-25 mg/kg
MC-38 [8] = assay: Antitumor activity against mouse MC38 cells implanted in C57BL/6J mouse assessed as tumor growth inhibition at 5 mg/kg, po measured for 20 days; type: functional; conditions: MC-38, 480 h, time 20 day, read-out: TGI
CT26 [9] = assay: Antitumor activity against mouse CT26 cells implanted in BALB/c mouse assessed as tumor growth inhibition at 10 mg/kg, ip measured at 8 to 14 days; type: functional; conditions: time 8-14 day, read-out: TGI
CT26 [10] = assay: Antitumor activity against mouse CT26 cells implanted in BALB/c mouse assessed as tumor growth inhibition at 25 mg/kg, ip measured for 18 days; type: functional; conditions: CT26, 432 h, time 18 day, read-out: TGI
CT26 [11] = assay: Antitumor activity against mouse CT26 cells implanted in BALB/c mouse assessed as increase in INF-gamma level at 25 mg/kg, ip measured for 20 days; type: functional, organism-based; conditions: time 20.0 day

SMILES: CCOC(=O)[C@@H](CO)NCc1cc(Cl)c(OCc2cccc(-c3cccc(OCCCN4CCC(O)CC4)c3)c2F)cc1OCc1ccc2nonc2c1.Cl.Cl
- CL [1]: 23.77 mL/min/kg
- F [2]: 3.4%
- AUCt [3]: 531.6 ng·h/mL
- AUCt [4]: 315.6 ng·h/mL
- Activity [5]: Non-Toxic
- Activity [6]: Non-Toxic
- Activity (MC-38 [7]): Dose-Dependent Effect
- inhibition in vivo at 5 mg/kg (MC-38 [8]): 49.2%
- inhibition in vivo at 10 mg/kg (CT26 [9]): 21.9%
- inhibition in vivo at 25 mg/kg (CT26 [10]): 54.8%
- Activity (CT26 [11]): Active
